# Laboratory results published in patent US20260286370A1, “METHODS FOR RAPID AGROBACTERIUM-MEDIATED SUNFLOWER STABLE TRANSFORMATION” (SYNGENTA CROP PROTECTION AG, priority 2023, published 2026).
# Tests used:
# Type in all cases: in vivo, Helianthus annuus
# [1] = system: sunflower explants from 1-day imbibed seeds; assay: Transformation efficiency with different concentration of TDZ in infection medium (Protocol V1); conditions: for # of TaqMan Positive Events / TF: variety F75400, vector 24545
# Description: Agrobacterium from storage at −80° C. were streaked to YP (Yeast Peptone) medium with 100 mg/L spectinomycin and 50 mg/L kanamycin at least 3 days before infection. They were re-streaked to a new YP medium plate with some concentrations of spectinomycin and kanamycin 1 day before infection. The Agrobacterium were then collected and re-suspended in infection liquid medium (containing MS basal salts and B5 vitamins, sucrose 20 g/L, glucose 10 g/L, MES, 4 g/L, zeatin riboside 2 mg/L, 3-10 mg/L TDZ, 80 mg/L acetosyringone (AS), 150 mg/L dithiothreitol (DTT), pH=5.5). The concentration of the Agrobacterium was adjusted until OD660=0.6.
# One cotyledon of the split germinated seeds was removed with a scalpel to expose the shoot apex with its two primary leaves. The two primary leaves were completely removed to expose the apical meristem and the apical region was gently wounded with the sharp end of a scalpel. The resultant explants were then placed in an Agrobacterium suspension and add 1/1000 10% F68; the suspension was then placed under vacuum at 800-900-mbar for 5-30 min followed by sonication at 45 kHz for 30-60s with gentle shaking. The explants were inoculated for 2-3 hours with the Agrobacterium with 50-80 rpm shaking.
# After inoculation in (3), the Agrobacterium suspension was removed, and the explants were then placed onto a piece of filter paper in a petri dish which prewetted by 0.5 ml co-cultivation media (MS basal salts and vitamins, MS iron, zeatin 1 mg/L, sucrose 10 g/L, glucose 5 g/L, MES 2 g/L, acetosyringone 20 mg/L, silver nitrate 0.5 mg/L) with the adaxial side up. One side of the filter paper was covered, and the petri dish was sealed with parafilm. Approximately 10~20 explants were placed per petri dish. The explant and Agrobacterium were co-cultured for 4 days in low-illumination condition: PAR (photosynthetically active radiation) 40 μmol m−2 s−1 with 16/8 light/dark condition. The plate containing explants was covered with a steel tray in an incubator (PERVICAL® Scientific Chambers, Perry, IA). These conditions were chosen to increase infection and prevent embryo deterioration. The explants were then co-cultured at 22° C. in the dark for 3-6 days in growth chamber.
# After co-culture, the explants were transferred onto SFR1 medium for shoot regeneration (Gamborg B5 basal salts and B5 vitamins, MS Iron 200×, sucrose 20 g/L, MES 1 g/L, timentin 150 mg/L, carbenicillin 150 mg/L, agar 7.5 g/L, lipoic acid-50 mM, BAP 1 mg/L). The SFR1 medium also contained a selection agent (i.e., spectinomycin 50-150 mg/L). The explants were allowed to culture on SFR1 media in the dark at 25° C. for 3-6 days, and then grown under light (16/8 light/dark) at 25° C. for 9-14 days. FIGS. 6A-D show formation of the primary shoots with GFP expression.
# Different concentrations of TDZ in the infection medium were tested to assess if TDZ concentration impacts transformation (Experiment alias: SF-52-SP-24545, SF-66-SP-24545, SF-81-SP-24545; variety: F75400). The process of transformation with explants from 1-day imbibed seeds was as described above. TDZ was added in the infection medium during the infection process for 2-4 hours. A TDZ concentration of 3-10 mg/L was used.
# [2] = system: sunflower explants; assay: Transformation efficiency with different cytokinin in germination medium (Protocol V2); conditions: variety F75400; for No. resistant shoot: hormone in germination medium: TDZ 4 mg/L (68 explants), BAP 5 mg/L (71 explants); for # of Resistant plants with GFP / Rate of resistant plants with GFP (%) / Resistant shoot rate: hormone in germination medium: TDZ 4 mg/L, BAP 5 mg/L
# Source text: Adding different cytokinin into germination medium can improve shoot induction rate and TF. The resistant plantlets were generated with normal shoots and roots, which was further confirmed by visualizing green fluorescent protein expression (GFP). (Experiment alias: SF-52-SP-24545, SF-66-SP-24545, SF-81-SP-24545; variety: F75400).
# [3] = system: sunflower explants; assay: Transformation frequency by selection system (aadA or ALS selectable marker); conditions: substance used as selection agent (aadA marker for spectinomycin, ALS marker for bensulfuron-methyl)
# Source text: As the Examples indicate, multiple transgenic-shoot structures were induced from infected explant tissues. Then the explants were shortly selected on selection media with selection agent (7-14 days, Spectinomycin as selection agent) and transplanted into soil to allow shoot and root development under controlled conditions (in growth chamber). From multiple experiments, transgenic events were successfully generated with aadA or ALS as selectable markers (spectinomycin and bensulfuron-methyl as selection agents respectively). The transformation frequency (TF) is 8.2% for spectinomycin selection, and 3.6% for bensulfuron-methyl selection system.
# [4] = system: sunflower cotyledon explants; assay: Shoot induction rate of cotyledon explants with different plant hormone (conventional process); conditions: conventional in vitro process
# Description: The most efficient regeneration and transformation system reported using cotyledon as explants was evaluated.
# [5] = system: sunflower explants; assay: Resistant frequencies with different concentration of spectinomycin in selection medium (Protocol V2); conditions: F75400
# Description: Transformed sunflower explants was transferred onto regeneration media by inserting cotyledon with meristem region into solid medium with a selection agent. Hypocotyl was left untouching the medium. The hypocotyl was covered with sterilized matrix and put the jar in 22° C., 16/8 h light/dark. The regeneration step lasted for 7-14 days. Specifically, after co-culture, the mature seeds were placed on regeneration medium as follows: cotyledon/meristem region was inserted into solid medium with a selection agent (100 mg/L spectinomycin), the hypocotyl was left upside (the whole seeds were upside down); the container was covered with sterilized matrix (soil mixture) and placed in growth chamber for inducing shooting and rooting simultaneously under short time selection (7-14 days).
# Selection medium with spectinomycin 100-800 mg/L was tested. The resistant plantlets are generated with normal shoots and roots, further confirmed by visualizing GFP. […] (Experiment alias: SF-23-SP-24545; variety: F75400).
# [6] = TDZ 3 mg/L in infection medium, 65 explants
# [7] = TDZ 4 mg/L in infection medium, 49 explants
# [8] = TDZ 8 mg/L in infection medium, 42 explants
# [9] = TDZ 10 mg/L in infection medium, 37 explants
# [10] = spectinomycin 100 mg/L in selection medium, SF23A, 89 explants
# [11] = spectinomycin 200 mg/L in selection medium, SF23B, 67 explants
# [12] = spectinomycin 300 mg/L in selection medium, SF23C, 61 explants
# [13] = spectinomycin 500 mg/L in selection medium, SF23D, 68 explants
# [14] = spectinomycin 800 mg/L in selection medium, SF23E, 70 explants
smiles,measurement,setting,value
"O=C(Nc1ccccc1)Nc1cnns1 [TDZ, 1-phenyl-3-(1,2,3-thiadiazol-5-yl)urea]",# of TaqMan Positive Events,[1]; [6],1
same,TF,[1]; [6],1.5%
same,# of TaqMan Positive Events,[1]; [7],4
same,TF,[1]; [7],8.2%
same,# of TaqMan Positive Events,[1]; [8],3
same,TF,[1]; [8],7.1%
same,# of TaqMan Positive Events,[1]; [9],1
same,TF,[1]; [9],2.7%
same,Effect on shoot induction rate and transformation efficiency,[1]; TDZ 3-10 mg/L in infection medium for 2-4 hours,significantly improve shoot induction rate and transformation efficiency
same,No. resistant shoot,[2],7
same,# of Resistant plants with GFP,[2],5
same,Rate of resistant plants with GFP (%),[2],7%
same,Resistant shoot rate,[2],10%
COC(=O)c1ccccc1CS(=O)(=O)NC(=O)Nc1nc(OC)cc(OC)n1 [bensulfuron-methyl],transformation frequency (TF),[3],3.6%
"c1ccc(CNc2ncnc3nc[nH]c23)cc1 [BAP, 6-benzylaminopurine]",Shoot induction rate (%),[4],2%
same,No. resistant shoot,[2],6
same,# of Resistant plants with GFP,[2],5
same,Rate of resistant plants with GFP (%),[2],7%
same,Resistant shoot rate,[2],8%
"CN[C@@H]1[C@H](O)[C@H](NC)[C@H]2O[C@@]3(O)C(=O)C[C@@H](C)O[C@H]3O[C@@H]2[C@H]1O [Spectinomycin, spectinomycin]",Generation of resistant shoots,[5]; all spectinomycin concentrations from 100 mg/L to 800 mg/L,generated resistant shoots
same,# of Resistant plants with GFP,[5]; [10],10
same,Rate of resistant plants with GFP (%),[5]; [10],11%
same,Rooting rate (%),[5]; [10],66%
same,Shooting Rate (%),[5]; [10],40%
same,# of Resistant plants with GFP,[5]; [11],6
same,Rate of resistant plants with GFP (%),[5]; [11],9%
same,Rooting rate (%),[5]; [11],36%
same,Shooting Rate (%),[5]; [11],18%
same,# of Resistant plants with GFP,[5]; [12],2
same,Rate of resistant plants with GFP (%),[5]; [12],3%
same,Rooting rate (%),[5]; [12],30%
same,Shooting Rate (%),[5]; [12],16%
same,# of Resistant plants with GFP,[5]; [13],2
same,Rate of resistant plants with GFP (%),[5]; [13],3%
same,Rooting rate (%),[5]; [13],18%
same,Shooting Rate (%),[5]; [13],10%
same,# of Resistant plants with GFP,[5]; [14],1
same,Rate of resistant plants with GFP (%),[5]; [14],1%
same,Rooting rate (%),[5]; [14],9%
same,Shooting Rate (%),[5]; [14],9%
same,transformation frequency (TF),[3],8.2%
